Counter-ions that a name gives are not always drawn.

In experiment [1] the test system is mouse medulloblastoma allogeneic transplantation model. The experiment in a line: In vivo anti-tumor test, mouse medulloblastoma allogeneic transplantation model. Particulars: 6.25 mg/kg orally twice a day for 2 weeks; nude mouse, subcutaneous medulloblastoma from Patched 1(+/-), p53(-/-) mouse; end of administration. The protocol:
According to the description in Sasaki, K. et al., (2006) Cancer Res. 66: 4215-4222, an anti-tumor effect of a compound was evaluated using a mouse medulloblastoma allogeneic transplantation model. To be precise, Patched 1 gene mutant mouse (lineage name: Ptch1tm1Mps/J) was purchased from The Jackson Laboratory and p53 gene mutant mouse (lineage name: P53N4-M, Nomenclature: B6.129-Trp53tm/BrdN4) was purchased from Taconic, and a mouse of Patched 1(+/−), p53(−/−) phenotype was prepared by mating. The tumor tissue of medulloblastoma spontaneously occurred in the cerebellum of 7- to 9-week-old Patched 1(+/−), p53(−/−) mouse was taken and subcutaneously transplanted into a nude mouse (lineage name: CAnN.Cg-Foxn1/CrlCrlj).
An anti-tumor test was performed using a tumor passaged by subcutaneous transplantation. A tumor mass was isolated by a 40 μm cell strainer (BD Biosciences, Cat. No. 352340), a tumor suspension was prepared with Leibovitz's L-15 medium (GIBCO, Cat. No. 11415-114) in a 2-fold amount relative to the tumor mass weight, mixed with an equivalent amount of matrigel (BD Biosciences, Cat. No. 356237), and subcutaneously transplanted to a mouse at […] per transplantation site. The tumor diameter after transplantation was measured and, when the tumor size reached 150-250 mm^3, the anti-tumor test was started using 5 mice per group.
The test compound was prepared to achieve a dose of 6.25 mg/kg with a 0.5% methylcellulose (Shin-Etsu Chemical Co., Ltd., Cat. No. SM-100) suspension, and orally administered twice a day for 2 weeks. The tumor size was calculated based on the longer diameter and shorter diameter of the tumor measured with an electron vernier caliper. After the start of the test, the tumor size was measured every 2 or 3 days and the growth rate of the tumor size was calculated. A tumor growth inhibitory effect of 95% or above was confirmed in each test compound administration group.
The tumor growth rate and the results of a significant difference test by the administration of each test compound are shown in the Table. The growth rate of the tumor size (T/C) was calculated according to: growth rate (T/C)=((tumor size of compound administration group at the end of administration)−(tumor size of compound administration group at the start of administration))/((tumor size of control group at the end of administration)−(tumor size of control group at the start of administration))×100.

Experiment [2] relates to NIH-3T3/Gli reporter cells. Kind of experiment: Evaluation of compound: Shh-N-induced luciferase activity in NIH-3T3/Gli reporter cells (Smo inhibitory action). The format is cell-based. Particulars: 48 hr; for inhibition at 1 µM: NIH3T3, 1 μM compound, mouse Shh-N end fragment supernatant, read-out: inhibition rate (%) at 1 μM; for IC50: NIH3T3, mouse Shh-N end fragment supernatant, read-out: IC50 value (compound concentration necessary for achieving 50% of the maximum value of inhibition rate). The protocol:
HEK293 cells were grown in D-MEM medium (Invitrogen) containing 10% fetal bovine serum in a 10 cm dish and pcDNA3.1/mShh-N was introduced into the cells using FuGENE6 (Roche Applied Science). Thereafter, the HEK293 cells were cultured in a carbon dioxide gas incubator at 37° C. for 24 hours, and the medium was exchanged with D-MEM medium (Invitrogen) containing 2% fetal bovine serum. After culturing for 48 hr, a culture supernatant containing recombinant type mouse Shh-N end fragment was obtained by filtration using a filter ([…]).
Using D-MEM (Invitrogen) containing 10% fetal bovine serum, expression plasmid pcDNA3.1 and Gli reporter plasmid (pGL3/δ-cry promoter, 8×Gli binding site) produced by the method of Experimental Example 1 were introduced into NIH-3T3 cells grown in a 10 cm dish by the use of FuGENE6 (Roche Applied Science).
After culture for 24 hr, the cells were recovered, suspended in D-MEM medium containing 10% fetal bovine serum and supplemented with Geneticin (Life Technologies Oriental, Inc.) to a final concentration of 500 μg/ml, diluted to 10^4 cells/ml, plated on a 96 well plate, and cultured in a carbon dioxide gas incubator at 37° C. to give Geneticin resistant transformed cell line.
The obtained transformed cell line was cultured in a 96 well plate, mouse Shh-N end fragment obtained in Experimental Example 3 was added, and NIH-3T3/Gli reporter cell, which is a cell line capable of induction of luciferase expression, was selected.
NIH-3T3/Gli reporter cells cultured in D-MEM (Invitrogen) containing 10% fetal bovine serum were plated in a 96 well white plate at 1×10^4 cells/well, and cultured overnight in a carbon dioxide gas incubator at 37° C. The medium was removed, a compound (50 μl) and culture supernatant of mouse Shh-N end fragment-expressing HEK293 (D-MEM medium containing 2% fetal bovine serum, 50 μl) were added, and the cells were cultured for 48 hr in a carbon dioxide gas incubator at 37° C. Bright-Glo (Promega, 50 μl) was added, and the mixture was stirred, after which luciferase activity was measured by EnVision (PerkinElmer). The inhibition rate was calculated based on the luciferase activity of the control without addition of the compound as 100. The concentration of the compound and the inhibition rate were analyzed by PRISM3.00 (software of GraphPad), based on which the IC50 value (compound concentration necessary for achieving 50% of the maximum value of inhibition rate) of the compound was calculated.

For the compound `Cc1cc2c(c(OCC(F)(F)F)c(C(=O)NC3CCN(C(=O)CO)CC3)n2C)c(=O)n1CC(=O)c1ccccc1` [Example 140, N-[1-(hydroxyacetyl)piperidin-4-yl]-1,6-dimethyl-4-oxo-5-(2-oxo-2-phenylethyl)-3-(2,2,2-trifluoroethoxy)-4,5-dihydro-1H-pyrrolo[3,2-c]pyridine-2-carboxamide], the “T/C (%) growth rate of the tumor size” value in experiment [1] came to 5.3%. Further, the inhibition at 1 µM in experiment [2] is 100%.
For `CCc1cc2c(c(OCC(F)(F)F)c(C(=O)NC3CCN(C(=O)CO)CC3)n2C)c(=O)n1CC(=O)c1ccccc1` [Example 143, 6-ethyl-N-[1-(hydroxyacetyl)piperidin-4-yl]-1-methyl-4-oxo-5-(2-oxo-2-phenylethyl)-3-(2,2,2-trifluoroethoxy)-4,5-dihydro-1H-pyrrolo[3,2-c]pyridine-2-carboxamide], in that order: 0.0% and 100%.
Consider `CCOc1c(C(=O)NC2CCN(C(=O)CO)CC2)n(C)c2cc(CC)n(CC(=O)c3ccccc3)c(=O)c12` [Example 139, 3-ethoxy-6-ethyl-N-[1-(hydroxyacetyl)piperidin-4-yl]-1-methyl-4-oxo-5-(2-oxo-2-phenylethyl)-4,5-dihydro-1H-pyrrolo[3,2-c]pyridine-2-carboxamide], for which the “T/C (%) growth rate of the tumor size” value in experiment [1] is given as 0.4%. Further, in experiment [2], the inhibition at 1 µM is 100%.
As to `CCc1cc2c(c(OCC(F)(F)F)c(C(=O)NC3CCN(C(=O)CO)CC3)n2C)c(=O)n1CC(=O)c1cccc(OC)c1` [Example 656, 6-ethyl-N-[1-(hydroxyacetyl)piperidin-4-yl]-5-[2-(3-methoxyphenyl)-2-oxoethyl]-1-methyl-4-oxo-3-(2,2,2-trifluoroethoxy)-4,5-dihydro-1H-pyrrolo[3,2-c]pyridine-2-carboxamide], the inhibition at 1 µM in experiment [2] was 100%.
Same read-out and setting: the same measure for `CCOc1c(C(=O)NCC(C)(C)O)n(C)c2cc(C)n(CC(=O)c3ccccc3)c(=O)c12` [Example 132, 3-ethoxy-N-(2-hydroxy-2-methylpropyl)-1,6-dimethyl-4-oxo-5-(2-oxo-2-phenylethyl)-4,5-dihydro-1H-pyrrolo[3,2-c]pyridine-2-carboxamide]: 100%.
With `COc1c(C(=O)N(C)CC(=O)N2CCCC2)sc2c1c(=O)n(CC(=O)c1ccccc1)c1ccccc21` [Example 27, 3-methoxy-N-methyl-4-oxo-5-(2-oxo-2-phenylethyl)-N-(2-oxo-2-pyrrolidin-1-ylethyl)-4,5-dihydrothieno[3,2-c]quinoline-2-carboxamide], in experiment [2], the inhibition at 1 µM stood at 100% and the IC50 is not above 1000 nM.
Consider `COc1c(C(=O)NC2CCN(CCO)CC2)n(C)c2c1c(=O)n(CC(=O)c1ccccc1)c1ccccc21` [Example 79, N-[1-(2-hydroxyethyl)piperidin-4-yl]-3-methoxy-1-methyl-4-oxo-5-(2-oxo-2-phenylethyl)-4,5-dihydro-1H-pyrrolo[3,2-c]quinoline-2-carboxamide], for which the “T/C (%) growth rate of the tumor size” value in experiment [1] came to 0.8%. In experiment [2], the inhibition at 1 µM turned out to be 100% and the IC50 is not above 1000 nM.
As for `COc1c(C(=O)NC2CCN(C(=O)CO)CC2)n(C)c2c1c(=O)n(CC(=O)c1ccccc1)c1ccccc21` [Example 124, N-[1-(hydroxyacetyl)piperidin-4-yl]-3-methoxy-1-methyl-4-oxo-5-(2-oxo-2-phenylethyl)-4,5-dihydro-1H-pyrrolo[3,2-c]quinoline-2-carboxamide], in experiment [1], the “T/C (%) growth rate of the tumor size” value was determined as 2.0%. Further, the inhibition at 1 µM in experiment [2] turned out to be 100%.
With `COc1c(C(=O)N2CCCCC2CN)sc2c1c(=O)n(CC(=O)c1ccccc1)c1ccccc21` (centres unmarked) [Example 73, 2-{[2-(aminomethyl)piperidin-1-yl]carbonyl}-3-methoxy-5-(2-oxo-2-phenylethyl)thieno[3,2-c]quinolin-4(5H)-one hydrochloride], in experiment [2], the inhibition at 1 µM is 100% and the IC50 is not above 1000 nM.
On to `COc1c(C(=O)NC2CCN(c3ccncn3)CC2)n(C)c2c1c(=O)n(CC(=O)c1ccccc1)c1ccccc21` [Example 583, 3-methoxy-1-methyl-4-oxo-5-(2-oxo-2-phenylethyl)-N-(1-pyrimidin-4-ylpiperidin-4-yl)-4,5-dihydro-1H-pyrrolo[3,2-c]quinoline-2-carboxamide], for which, in experiment [2], the inhibition at 1 µM was determined as 100%.
Turning to `COc1c(C(=O)NCC2CCCN(CCO)C2)n(C)c2c1c(=O)n(CC(=O)c1ccccc1)c1ccccc21` (centres unmarked) [Example 102, N-{[1-(2-hydroxyethyl)piperidin-3-yl]methyl}-3-methoxy-1-methyl-4-oxo-5-(2-oxo-2-phenylethyl)-4,5-dihydro-1H-pyrrolo[3,2-c]quinoline-2-carboxamide], in experiment [2], the inhibition at 1 µM was determined as 80% and the IC50 is not above 1000 nM.
As to `CCOC(=O)Cn1c(=O)c2c(OC)c(C(=O)N(C)CCN(CC)CC)sc2c2ccccc21` [Example 53, ethyl [2-{[2-(diethylamino)ethyl](methyl)carbamoyl}-3-methoxy-4-oxothieno[3,2-c]quinolin-5(4H)-yl]acetate], in experiment [2], the inhibition at 1 µM turned out to be 95% and the IC50 is not above 1000 nM.
For `COc1c(C(=O)N(C)C2CCN(C)C2)sc2c1c(=O)n(CC(=O)c1ccccc1)c1ccccc21` (centres unmarked) [Example 16, 3-methoxy-N-methyl-N-(1-methylpyrrolidin-3-yl)-4-oxo-5-(2-oxo-2-phenylethyl)-4,5-dihydrothieno[3,2-c]quinoline-2-carboxamide trifluoroacetate], in that order: 100% and not above 1000 nM.
For `CCc1cc2c(c(OCC(F)(F)F)c(C(=O)NC3CCN(C(=O)CO)CC3)n2C)c(=O)n1Cc1ccccc1OC` [Example 658, 6-ethyl-N-[1-(hydroxyacetyl)piperidin-4-yl]-5-(2-methoxybenzyl)-1-methyl-4-oxo-3-(2,2,2-trifluoroethoxy)-4,5-dihydro-1H-pyrrolo[3,2-c]pyridine-2-carboxamide], the inhibition at 1 µM in experiment [2] was determined as 100%.
As to `COc1c(C(=O)N(C)CCNC(C)C)sc2c1c(=O)n(CC(=O)c1ccccc1)c1ccccc21` [Example 115, 3-methoxy-N-methyl-N-{2-[(1-methylethyl)amino]ethyl}-4-oxo-5-(2-oxo-2-phenylethyl)-4,5-dihydrothieno[3,2-c]quinoline-2-carboxamide hydrochloride], in experiment [2], the inhibition at 1 µM was 100% and the IC50 was not above 1000 nM.
For `CCN(CC)CCN(C)C(=O)c1sc2c(c1OC)c(=O)n(CC(=O)C(C)(C)C)c1ccccc21` [Example 50, N-[2-(diethylamino)ethyl]-5-(3,3-dimethyl-2-oxobutyl)-3-methoxy-N-methyl-4-oxo-4,5-dihydrothieno[3,2-c]quinoline-2-carboxamide], in that order: 100% and not above 1000 nM.

Values taken from patent US8217176B2, “Fused heterocyclic derivative and use thereof” (Takeda Pharmaceutical Company Limited, priority 2008, dated 2012).
